Where two headings read alike, the source gives them in different places.
Key:
Experiment in all cases: SelectScreen Kinase Profiling, single point inhibition and IC50 for off-target kinases
Assay type in all cases: biochemical
off-target kinases [1] = target: off-target kinases (Homo sapiens, UniProt P32298); details: GRK4; Cmpd1 1000 μM; ATP Km app; ZLYTE
off-target kinases [2] = target: off-target kinases (Homo sapiens, UniProt P22607, K650M); details: FGFR3 K650M, mutant y, LanthaScreen Binding
off-target kinases [3] = target: T1, off-target kinases (Homo sapiens, UniProt Q8TD08); details: MAPK15 (ERK7), LanthaScreen Binding
T1 sequence (Q8TD08 1-544): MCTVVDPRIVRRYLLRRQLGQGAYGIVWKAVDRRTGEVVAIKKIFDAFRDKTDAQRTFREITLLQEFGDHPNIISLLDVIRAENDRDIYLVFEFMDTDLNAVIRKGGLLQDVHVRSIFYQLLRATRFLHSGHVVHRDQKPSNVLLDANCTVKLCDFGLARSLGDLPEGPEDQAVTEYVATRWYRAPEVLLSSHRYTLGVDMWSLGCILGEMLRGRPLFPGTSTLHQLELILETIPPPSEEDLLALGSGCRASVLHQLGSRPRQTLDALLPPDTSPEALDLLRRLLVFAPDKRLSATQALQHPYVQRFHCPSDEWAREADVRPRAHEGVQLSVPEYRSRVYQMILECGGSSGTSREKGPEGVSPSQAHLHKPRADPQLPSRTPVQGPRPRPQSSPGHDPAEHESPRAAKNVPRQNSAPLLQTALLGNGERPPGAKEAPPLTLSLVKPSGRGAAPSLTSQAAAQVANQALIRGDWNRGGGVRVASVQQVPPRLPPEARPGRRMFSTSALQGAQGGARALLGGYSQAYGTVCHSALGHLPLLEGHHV

off-target kinases [4] = target: T2, off-target kinases (Homo sapiens, UniProt Q9BXA7); details: STK22D (TSSK1), ATP Km app, ZLYTE
T2 sequence (Q9BXA7 1-367): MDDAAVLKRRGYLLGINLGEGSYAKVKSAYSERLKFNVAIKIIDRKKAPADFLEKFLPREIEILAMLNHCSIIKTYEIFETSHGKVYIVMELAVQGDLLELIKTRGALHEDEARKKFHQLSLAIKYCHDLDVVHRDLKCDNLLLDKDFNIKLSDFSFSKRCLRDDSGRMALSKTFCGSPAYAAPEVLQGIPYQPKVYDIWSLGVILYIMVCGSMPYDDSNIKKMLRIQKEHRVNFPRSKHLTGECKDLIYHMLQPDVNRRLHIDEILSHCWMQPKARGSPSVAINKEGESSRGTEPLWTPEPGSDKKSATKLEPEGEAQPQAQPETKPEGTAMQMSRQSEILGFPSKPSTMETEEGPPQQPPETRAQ

Sequence of off-target kinases (Homo sapiens, UniProt P32298) (P32298 whole entry): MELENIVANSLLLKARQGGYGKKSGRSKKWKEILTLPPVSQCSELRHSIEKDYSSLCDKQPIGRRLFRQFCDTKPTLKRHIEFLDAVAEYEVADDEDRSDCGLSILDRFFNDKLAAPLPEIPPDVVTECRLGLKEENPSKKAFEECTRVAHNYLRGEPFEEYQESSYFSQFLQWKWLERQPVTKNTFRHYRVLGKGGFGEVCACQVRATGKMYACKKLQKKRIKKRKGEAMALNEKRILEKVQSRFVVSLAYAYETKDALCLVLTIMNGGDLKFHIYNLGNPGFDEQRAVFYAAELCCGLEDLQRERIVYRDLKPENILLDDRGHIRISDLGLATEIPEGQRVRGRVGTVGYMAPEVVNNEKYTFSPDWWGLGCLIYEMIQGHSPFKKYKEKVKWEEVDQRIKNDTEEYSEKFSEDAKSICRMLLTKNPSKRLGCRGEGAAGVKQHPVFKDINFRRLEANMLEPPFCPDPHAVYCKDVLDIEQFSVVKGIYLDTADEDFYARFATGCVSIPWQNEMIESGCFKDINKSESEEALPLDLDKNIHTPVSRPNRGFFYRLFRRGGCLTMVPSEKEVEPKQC
Sequence of off-target kinases (Homo sapiens, UniProt P22607, K650M) (P22607 23-806 K650M): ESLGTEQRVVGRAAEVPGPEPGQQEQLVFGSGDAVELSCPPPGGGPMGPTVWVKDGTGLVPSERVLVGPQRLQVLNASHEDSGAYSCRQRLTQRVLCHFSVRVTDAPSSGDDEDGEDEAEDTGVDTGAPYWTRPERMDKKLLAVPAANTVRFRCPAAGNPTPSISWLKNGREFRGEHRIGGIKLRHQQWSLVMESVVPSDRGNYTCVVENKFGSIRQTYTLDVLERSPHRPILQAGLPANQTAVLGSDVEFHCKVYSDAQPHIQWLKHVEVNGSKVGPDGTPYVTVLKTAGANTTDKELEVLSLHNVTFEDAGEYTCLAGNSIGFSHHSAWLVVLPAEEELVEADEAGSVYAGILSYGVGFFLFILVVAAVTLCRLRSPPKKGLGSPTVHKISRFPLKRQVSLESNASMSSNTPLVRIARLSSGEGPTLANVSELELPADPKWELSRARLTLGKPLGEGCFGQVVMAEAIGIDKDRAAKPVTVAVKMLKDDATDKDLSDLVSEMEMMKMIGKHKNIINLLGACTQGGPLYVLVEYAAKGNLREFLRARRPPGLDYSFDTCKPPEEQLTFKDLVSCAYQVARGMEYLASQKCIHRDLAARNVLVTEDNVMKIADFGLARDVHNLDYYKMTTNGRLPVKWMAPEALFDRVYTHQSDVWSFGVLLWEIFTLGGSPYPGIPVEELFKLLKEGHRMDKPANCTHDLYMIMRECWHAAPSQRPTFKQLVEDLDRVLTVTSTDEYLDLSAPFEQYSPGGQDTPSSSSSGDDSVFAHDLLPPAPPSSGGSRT

For `N#Cc1cc(-c2ncnc(Nc3ccc(N4CCN(C5COC5)CC4)cc3)n2)ccc1OC1CCOCC1` [Compound 1, 5-(4-((4-(4-(oxetan-3-yl)piperazin-1-yl)phenyl)amino)-1,3,5-triazin-2-yl)-2-((tetrahydro-2H-pyran-4-yl)oxy)benzonitrile], the “% Inhibition 1” value (off-target kinases [1]) was −4%, the “% Inhibition 2” value (off-target kinases [1]) was −5% and the “% Inhibition Avg” value (off-target kinases [1]) was −5%. It also gave an inhibition (off-target kinases [2]; read-out: % Inhibition 1) of 33%, an inhibition (off-target kinases [2]; read-out: % Inhibition 2) of 38% and an inhibition (off-target kinases [2]; read-out: % Inhibition Avg) of 35%. The inhibition (off-target kinases [3]; read-out: % Inhibition 1) was 100%, the inhibition (off-target kinases [3]; read-out: % Inhibition 2) was 100% and the inhibition (off-target kinases [3]; read-out: % Inhibition Avg) was 100%. For the same compound, the inhibition (off-target kinases [4]; read-out: % Inhibition 1) was 99%, the inhibition (off-target kinases [4]; read-out: % Inhibition 2) was 95% and the inhibition (off-target kinases [4]; read-out: % Inhibition Avg) was 97%.

Reference: patent US11572590B2, “Methods for evaluating tumor cell spheroids using 3D microfluidic cell culture device” (Dana-Farber Cancer Institute, Inc., priority 2017, dated 2023)
